Literature values, collected in patent publication US8119653B2, “Belactosin derivatives as therapeutic agents/biological probes and their synthesis” (The Texas A&M University System, priority 2006, dated 2012).

Assays:
[1] = in vivo

Compound: CCCCCCCCCCC[C@@H](C[C@@H]1OC(=O)[C@H]1CCCCCC)OC(=O)[C@H](CC(C)C)NC=O [Orlistat]
- solubility: poor
- tumor growth in vivo (tumor growth): can inhibit tumor growth
- effect on tumor cells in vitro (tumor cells): cytotoxic and cytostatic
- bioavailability [1]: poor
